Structures can show the parent of a compound that is named as a salt. Where two headings read alike, the source gives them in different places.
Assays:
Assay in all cases: IC50 determination, spectrophotometric protease assay
Format in all cases: biochemical
[1] = biological target: T1, Thrombin (recombinant thrombin) (Homo sapiens, UniProt P00734)
T1 construct: purchased R&D
Protocol: (§1) The IC50 values were determined using a spectrophotometric assay. All the experiments were conducted in duplicate. The readout consisted of evaluating the protease-mediated release of the chromophore para-nitroaniline (pNA) or fluorophore 7-amino-4-methyl coumarin (AMC) moieties from the respective substrates. Enzymatic activity was measured for 30 min at 37°C. All compounds were initially screened at three concentrations (10, 1, and .1 μM) to estimate the range of the IC50 value. Those which were able to reduce protease activity by at least 50% at a concentration of 10 μM were submitted to an exact IC50 determination. […] A third independent experiment was performed when the standard deviation of the two independent experiments was higher than […]. IC50 values were obtained by fitting the data with the four-parameter logistics equation using GraphPad Prism 9.
(§2) The conditions for each protease are described as follows, the concentration of substrate used was at the corresponding Km.

[2] = biological target: T2, Cathepsin G (cathepsin G human neutrophil) (Homo sapiens, UniProt P08311); conditions: for CatG IC50: alkyne probes
T2 construct: Cathepsin G (cathepsin G human neutrophil, Sigma-Aldrich); purchased Sigma-Aldrich; host or cells: human neutrophil
T2 sequence (P08311 21-255): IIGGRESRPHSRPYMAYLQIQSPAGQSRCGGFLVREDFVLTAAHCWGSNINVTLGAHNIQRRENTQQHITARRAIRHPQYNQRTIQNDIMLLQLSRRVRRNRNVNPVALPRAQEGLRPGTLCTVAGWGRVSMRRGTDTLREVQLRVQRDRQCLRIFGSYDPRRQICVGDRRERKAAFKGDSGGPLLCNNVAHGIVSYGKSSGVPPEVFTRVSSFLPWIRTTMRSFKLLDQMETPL
Protocol: as §1, §2

[3] = biological target: T3, Neutrophil Elastase (recombinant neutrophil elastase) (Homo sapiens, UniProt P08246); conditions: for NE IC50: alkyne probes
T3 construct: purchased Enzo LifeSciences
T3 sequence (P08246 30-267): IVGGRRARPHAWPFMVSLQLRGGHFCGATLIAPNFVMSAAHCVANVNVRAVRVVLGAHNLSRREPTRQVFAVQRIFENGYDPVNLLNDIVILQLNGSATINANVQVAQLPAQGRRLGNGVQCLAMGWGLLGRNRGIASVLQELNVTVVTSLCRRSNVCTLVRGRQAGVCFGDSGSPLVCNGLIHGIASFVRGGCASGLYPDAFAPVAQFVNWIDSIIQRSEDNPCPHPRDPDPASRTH
Protocol: as §1, §2

[4] = biological target: T4, uPA (recombinant urokinase plasminogen activator) (Homo sapiens, UniProt P00749)
T4 construct: purchased HYPHEN BioMed
Protocol: as §1, §2

[5] = biological target: T5, TLCK-treated pancreatic bovine chymotrypsin (Bos taurus, UniProt P00766); conditions: for ChTryp IC50: alkyne probes
T5 construct: TLCK-treated pancreatic bovine chymotrypsin (Sigma-Aldrich); purchased Sigma-Aldrich; host or cells: bovine pancreas
Protocol: as §1, §2

[6] = biological target: T6, Trypsin-3 (recombinant trypsin-3) (Homo sapiens, UniProt P35030); conditions: for Trypsin-3 IC50: alkyne probes
T6 construct: purchased R&D
T6 sequence (P35030 1-304): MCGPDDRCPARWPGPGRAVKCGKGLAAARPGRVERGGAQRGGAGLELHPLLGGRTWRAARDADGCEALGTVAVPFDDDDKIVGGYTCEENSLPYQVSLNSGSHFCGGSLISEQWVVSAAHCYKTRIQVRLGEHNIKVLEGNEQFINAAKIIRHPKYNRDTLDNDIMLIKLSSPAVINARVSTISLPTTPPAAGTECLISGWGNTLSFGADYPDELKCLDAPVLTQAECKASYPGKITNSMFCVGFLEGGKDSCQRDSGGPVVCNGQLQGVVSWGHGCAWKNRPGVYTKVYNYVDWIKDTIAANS
Protocol: as §1, §2

[7] = biological target: T7, β-tryptase (recombinant tryptase β-2) (Homo sapiens, UniProt P20231)
T7 construct: purchased EnzoLife Sciences
Protocol: as §1, §2

[8] = 15 min preincubation at 37°C, mean ± SD
[9] = read-out: Thrombin IC50, desthiobiotin probes, 15 min preincubation at 37°C, mean ± SD
[10] = read-out: CatG IC50, desthiobiotin probes, 15 min preincubation at 37°C, mean ± SD
[11] = read-out: NE IC50, desthiobiotin probes, 15 min preincubation at 37°C, mean ± SD
[12] = read-out: uPA IC50, desthiobiotin probes, 15 min preincubation at 37°C, mean ± SD
[13] = read-out: ChTryp IC50, desthiobiotin probes, 15 min preincubation at 37°C, mean ± SD
[14] = read-out: Trypsin-3 IC50, desthiobiotin probes, 15 min preincubation at 37°C, mean ± SD
[15] = read-out: β-tryptase IC50, desthiobiotin probes, 15 min preincubation at 37°C, mean ± SD
[16] = alkyne probes, 15 min preincubation at 37°C, mean ± SD

T7 sequence (P20231 31-275): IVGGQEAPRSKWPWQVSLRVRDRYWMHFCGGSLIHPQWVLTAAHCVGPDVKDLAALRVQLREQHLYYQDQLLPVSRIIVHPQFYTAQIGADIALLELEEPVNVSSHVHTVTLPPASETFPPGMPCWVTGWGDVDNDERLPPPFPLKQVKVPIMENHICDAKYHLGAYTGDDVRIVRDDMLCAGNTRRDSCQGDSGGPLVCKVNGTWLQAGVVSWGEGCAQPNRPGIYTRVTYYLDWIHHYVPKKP

SMILES	IC50 [1] [µM]	IC50 [2] [µM]	IC50 [3] [µM]	IC50 [4] [µM]	IC50 [5] [µM]	IC50 [6] [µM]	IC50 [7] [µM]	other results
CC(C)C(NC(=O)OCCCc1cn(CCOCCOCCOCCNC(=O)CCCCC[C@H]2NC(=O)N[C@H]2C)nn1)P(=O)(Oc1ccccc1)Oc1ccccc1 (stereo partly shown) [compound 44]	> 10	> 10	4.7 ± 0.2	> 10	> 10	> 10	> 10	–
C#CCCCOC(=O)NC(C1CCNCC1)P(=O)(Oc1ccccc1)Oc1ccccc1 (stereo not shown) [23b]	> 10	> 10	> 10	> 10	> 10	> 10	> 10	–
C#CCCCOC(=O)NC(c1ccc(N)cc1)P(=O)(Oc1ccc(Cl)cc1)Oc1ccc(Cl)cc1 (stereo not shown) [21b]	–	> 10	–	> 10	–	–	> 10	–
C#CCCCOC(=O)NC(c1ccc(N)cc1)P(=O)(Oc1ccccc1)Oc1ccccc1 (stereo not shown) [19b]	6.59 ± 3.9	> 10	> 10	> 10	8.52 ± 1.81	9.06 ± 1.1	> 10	–
C#CCCCOC(=O)NC(Cc1ccc(CNC(=N)N)cc1)P(=O)(Oc1ccccc1)Oc1ccccc1 (stereo not shown) [40b]	> 10	6.16 ± 0.48	> 10	> 10	> 10	> 10	> 10	–
C#CCCCOC(=O)NC(c1ccc(N)cc1)P(=O)(Oc1ccc(NC(C)=O)cc1)Oc1ccc(NC(C)=O)cc1 (stereo not shown) [20b]	–	> 10	–	> 10	–	–	> 10	–
C#CCCCOC(=O)NC(Cc1ccc(N)cc1)P(=O)(Oc1ccc(NC(C)=O)cc1)Oc1ccc(NC(C)=O)cc1 (stereo not shown) [17b]	2.97 ± 0.07	0.37 ± 0.008	> 10	> 10	0.49 ± 0.28	3.71 ± 0.71	> 10	CatG IC50 [2, 8]: submicromolar; ChTryp IC50 [5, 8]: submicromolar
C#CCCCOC(=O)NC(Cc1ccccc1)P(=O)(Oc1ccccc1)Oc1ccccc1 (stereo not shown) [compound 12]	> 10	> 10	> 10	> 10	1.54 ± 1.34	> 10	> 10	–
C#CCCCOC(=O)NC(Cc1ccc(N)cc1)P(=O)(Oc1ccc(Cl)cc1)Oc1ccc(Cl)cc1 (stereo not shown) [18b]	7.88 ± 0.61	0.36 ± 0.01	> 10	6.38 ± 0.52	0.19 ± 0.14	1.72 ± 0.19	> 10	CatG IC50 [2, 8]: submicromolar; ChTryp IC50 [5, 8]: submicromolar
O=C(CCCCC1SCC2NC(=O)NC21)NCCOCCOCCOCCn1cc(CCCOC(=O)NC(Cc2ccccc2)P(=O)(Oc2ccccc2)Oc2ccccc2)nn1 (stereo not shown) [compound 43]	–	–	–	–	–	–	–	IC50 ([1]; read-out: Thrombin IC50, biotin probes, 15 min preincubation at 37 °C, mean ± SD): > 10 µM; IC50 ([2]; read-out: CatG IC50, biotin probes, 15 min preincubation at 37 °C, mean ± SD): 2.77 µM; IC50 ([3]; read-out: NE IC50, biotin probes, 15 min preincubation at 37 °C, mean ± SD): > 10 µM; IC50 ([4]; read-out: uPA IC50, biotin probes, 15 min preincubation at 37 °C, mean ± SD): > 10 µM; IC50 ([5]; read-out: ChTryp IC50, biotin probes, 15 min preincubation at 37 °C, mean ± SD): 2.64 µM; IC50 ([6]; read-out: Trypsin-3 IC50, biotin probes, 15 min preincubation at 37 °C, mean ± SD): > 10 µM; IC50 ([7]; read-out: β-tryptase IC50, biotin probes, 15 min preincubation at 37 °C, mean ± SD): > 10 µM
C[C@@H]1NC(=O)N[C@@H]1CCCCCC(=O)NCCOCCOCCOCCn1cc(CCCOC(=O)NC(Cc2ccccc2)P(=O)(Oc2ccccc2)Oc2ccccc2)nn1 (stereo partly shown) [compound 42]	> 10	3.23 ± 0.29	> 10	> 10	2.07 ± 0.85	> 10	> 10	–
C#CCCCOC(=O)NC(C(C)C)P(=O)(Oc1ccccc1)Oc1ccccc1 (stereo not shown) [compound 13]	> 10	> 10	> 10	> 10	> 10	> 10	> 10	NE IC50 [3, 8]: not potent
C#CCCCOC(=O)NC(Cc1ccc(N)cc1)P(=O)(Oc1ccccc1)Oc1ccccc1 (stereo not shown) [16b]	> 10	3.74 ± 0.27	> 10	> 10	2.67 ± 0.57	6.85 ± 0.8	> 10	–
C[C@@H]1NC(=O)N[C@@H]1CCCCCC(=O)NCCOCCOCCOCCn1cc(CCCOC(=O)NC(CCCCN)P(=O)(Oc2ccccc2)Oc2ccccc2)nn1 (stereo partly shown) [47b]	–	–	–	–	–	–	–	IC50 [1, 9]: 3.55 ± 0.17 µM; IC50 [2, 10]: > 10 µM; IC50 [3, 11]: > 10 µM; IC50 [4, 12]: 4.62 ± 0.17 µM; IC50 [5, 13]: > 10 µM; IC50 [6, 14]: 0.52 ± 0.24 µM; IC50 [7, 15]: 2.49 ± 0.19 µM
C#CCCCOC(=O)NC(CCCCN)P(=O)(Oc1ccccc1)Oc1ccccc1.O=C(O)C(F)(F)F (stereo not shown) [29b]	7.36 ± 0.25	> 10	> 10	5.27 ± 0.15	5.87 ± 3.39	0.07 ± 0.02	3.96 ± 0.5	Trypsin-3 IC50 [6, 8]: nanomolar inhibition
C#CCCCOC(=O)NC(CCCN)P(=O)(Oc1ccccc1)Oc1ccccc1.O=C(O)C(F)(F)F (stereo not shown) [14b]	> 10	> 10	> 10	> 10	> 10	> 10	> 10	Thrombin IC50 [1, 16]: inactive; CatG IC50 [2, 8]: inactive; NE IC50 [3, 8]: inactive; uPA IC50 [4, 16]: inactive; ChTryp IC50 [5, 8]: inactive; Trypsin-3 IC50 [6, 8]: inactive; β-tryptase IC50 [7, 16]: inactive
C#CCCCOC(=O)NC(Cc1ccc(CN)cc1)P(=O)(Oc1ccccc1)Oc1ccccc1 (stereo not shown) [22b]	> 10	5.26 ± 0.68	> 10	2.3 ± 0.1	> 10	3.82 ± 0.19	> 10	–
C#CCCCOC(=O)NC(CCCCN)P(=O)(Oc1ccc(NC(=O)OC)cc1)Oc1ccc(NC(=O)OC)cc1 (stereo not shown) [30b]	1.18 ± 0.07	0.56 ± 0.002	> 10	2.44 ± 0.35	> 10	0.006 ± 0.0006	0.68 ± 0.05	Trypsin-3 IC50 [6, 8]: nanomolar inhibition
CC(=O)Nc1ccc(OP(=O)(Oc2ccc(NC(C)=O)cc2)C(CCCCN)NC(=O)OCCCc2cn(CCOCCOCCOCCNC(=O)CCCCC[C@H]3NC(=O)N[C@H]3C)nn2)cc1 (stereo partly drawn) [49b, 3-(1-(18-((4R,5S)-5-methyl-2-oxoimidazolidin-4-yl)-13-oxo-3,6,9-trioxa-12-azaoctadecyl)-1H-1,2,3-triazol-4-yl)propyl (5-amino-1-(bis(4-acetamidophenoxy)phosphoryl)pentyl)carbamate trifluoroacetate salt]	–	–	–	–	–	–	–	IC50 [1, 9]: 1.18 ± 0.04 µM; IC50 [2, 10]: 4.47 ± 0.51 µM; IC50 [3, 11]: > 10 µM; IC50 [4, 12]: 6.75 ± 0.52 µM; IC50 [5, 13]: > 10 µM; IC50 [6, 14]: 0.09 ± 0.005 µM; IC50 [7, 15]: 1.11 ± 0.05 µM
